From US6790854B2, “Diphenylalkylamine derivatives useful as opioid receptor agonists” (Meiji Seika Kaisha, Ltd., priority 2000, dated 2004)

Target: T1, opioid δ receptor (Rattus norvegicus, UniProt P33533)
T1 construct: A membrane fraction of opioid δ receptor was prepared from the rat forebrain; from tissue; host or cells: rat forebrain membrane fraction
Assay: Binding affinity for opioid δ receptor ([3H]-Naltrindole displacement, rat forebrain membrane fraction)
Conditions: [3H]-Naltrindole 1 nM, 25° C., 90 minutes, Ki calculated from IC50 by the Cheng-Prusoff equation

T1 sequence (P33533 whole entry): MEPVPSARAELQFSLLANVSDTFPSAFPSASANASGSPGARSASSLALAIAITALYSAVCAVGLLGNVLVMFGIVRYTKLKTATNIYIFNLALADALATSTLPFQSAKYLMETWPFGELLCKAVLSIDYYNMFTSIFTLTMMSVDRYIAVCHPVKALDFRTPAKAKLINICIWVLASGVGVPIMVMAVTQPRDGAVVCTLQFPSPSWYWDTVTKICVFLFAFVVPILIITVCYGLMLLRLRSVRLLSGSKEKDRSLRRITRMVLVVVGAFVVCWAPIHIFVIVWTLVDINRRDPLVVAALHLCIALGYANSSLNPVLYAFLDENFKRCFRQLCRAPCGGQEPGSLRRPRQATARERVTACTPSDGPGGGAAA

CCN(CC)C(=O)c1ccc(C(CCN2CCC3(CC2)CNC(=O)c2cccc(C)c23)c2ccccc2OC)cc1 (stereo not shown) [Example 9, 1′-[3-(4-Diethylcarbamoylphenyl)-3-(2-methoxyphenyl)Propyl]-2,3-dihydro-5-methylspiro [isoquinoline-4(1H),4′-piperidin]-1-one]
Ki: 1.21 µM
